The record followed here is patent US12084437B2, “Halo-substituted piperidines as orexin receptor modulators” (AstraZeneca AB, priority 2016, dated 2024).

One may read the IC50 as the point on the concentration scale where inhibition reaches its midpoint.

In one experiment the target is T1, OX2 (Homo sapiens, UniProt O43614).
T1 construct: expressed in transfected cells; host or cells: CHO (CHO-OX2)
T1 sequence (O43614 1-444): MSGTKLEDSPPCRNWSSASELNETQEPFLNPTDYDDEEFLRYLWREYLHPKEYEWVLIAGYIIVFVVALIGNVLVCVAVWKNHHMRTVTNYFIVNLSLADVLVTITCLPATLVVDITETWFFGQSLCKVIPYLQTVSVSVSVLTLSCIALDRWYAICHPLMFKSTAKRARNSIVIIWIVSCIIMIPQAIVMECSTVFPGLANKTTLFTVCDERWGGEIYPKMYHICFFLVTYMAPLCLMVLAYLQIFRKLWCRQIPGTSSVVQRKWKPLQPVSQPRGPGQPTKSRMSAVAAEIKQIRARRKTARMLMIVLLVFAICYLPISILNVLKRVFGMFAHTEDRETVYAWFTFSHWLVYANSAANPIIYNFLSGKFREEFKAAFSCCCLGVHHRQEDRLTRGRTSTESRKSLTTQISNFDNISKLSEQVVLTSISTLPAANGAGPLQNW
Put plainly: Orexin receptor cell-based functional assay, [Ca2+]i by FLIPR, CHO-OX2 cells. The note with it: FLIPR calcium, antagonism of EC90 of [OX]. The gist of the method: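 CHO cells expressing human OX1 or OX2 (20,000/well, grown overnight) were loaded with Calcium6 dye plus 2.5 mM probenecid for 2 h at 37 °C, then preincubated 30 min with compound (0.1 nM–10 µM). FLIPR fluorescence (ex 488/em 540 nm) was tracked before and after an EC90 orexin challenge.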

In the next experiment the target is T2, OX1 (Homo sapiens, UniProt O43613).
T2 construct: expressed in transfected cells; host or cells: CHO (CHO-OX1)
T2 sequence (O43613 1-425): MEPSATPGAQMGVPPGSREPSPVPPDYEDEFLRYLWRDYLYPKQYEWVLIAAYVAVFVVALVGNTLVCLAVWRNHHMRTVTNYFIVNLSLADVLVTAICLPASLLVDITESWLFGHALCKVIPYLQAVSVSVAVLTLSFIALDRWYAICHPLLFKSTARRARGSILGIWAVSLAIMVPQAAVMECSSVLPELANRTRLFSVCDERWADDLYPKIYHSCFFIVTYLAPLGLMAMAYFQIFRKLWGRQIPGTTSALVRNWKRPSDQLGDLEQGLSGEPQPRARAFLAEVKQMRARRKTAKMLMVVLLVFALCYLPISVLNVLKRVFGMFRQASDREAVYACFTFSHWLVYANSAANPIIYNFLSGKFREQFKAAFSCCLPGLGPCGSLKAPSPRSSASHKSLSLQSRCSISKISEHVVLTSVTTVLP
Put plainly: Orexin receptor cell-based functional assay, [Ca2+]i by FLIPR, CHO-OX1 cells. The note with it: FLIPR calcium, antagonism of EC90 of [OX], read-out: OXI, IC50.

SMILES strings stand for the structures. Where “and” joins values, the source holds several entries; their conditions need not be identical. Identical values can stand only once.

`C[C@@H]1CC(F)(F)CN(C(=O)c2nn(C)cc2-c2ccc(Cl)cn2)[C@@H]1CNc1ncc(C(F)(F)F)cn1` [Compound 221, (4-(5-chloropyridin-2-yl)-1-methyl-1H-pyrazol-3-yl)((2S,3R)-5,5-difluoro-3-methyl-2-(((5-(trifluoromethyl)pyrimidin-2-yl)amino)methyl)piperidin-1-yl)methanone]: the IC50 was more than 5000 nM at OX2 and 2 nM at OX1.

Consider `C[C@@H]1CC(F)(F)CN(C(=O)c2nn(C)cc2-c2cnccn2)[C@@H]1CNc1ncc(C(F)(F)F)cn1` [Compound 224, ((2S,3R)-5,5-difluoro-3-methyl-2-(((5-(trifluoromethyl)pyrimidin-2-yl)amino)methyl)piperidin-1-yl)(1-methyl-4-(pyrazin-2-yl)-1H-pyrazol-3-yl)methanone], for which the figures for the IC50 at OX2 and at OX1 were more than 5000 nM and 62 nM, respectively.

Consider `C[C@@H]1CC(F)(F)CN(C(=O)c2nn(C)cc2-c2ccccc2)[C@@H]1CNc1ncc(Cl)cn1` [Compound 22], for which the IC50 at OX2 is more than 5000 nM; on OX1, 7 nM.

Regarding `Cc1ccc(-n2nccn2)c(C(=O)N2CC(F)(F)C[C@@H](C)[C@H]2CNc2ncc(C(F)(F)F)cn2)n1` [Compound 12], the IC50 at OX2 is more than 5000 nM; on OX1 it was 15 nM.

Consider `C[C@@H]1CC(F)(F)CN(C(=O)c2cc(Cl)ccc2-c2ncccn2)[C@@H]1CNc1ncc(C(F)(F)F)cn1` [Compound 56, (5-chloro-2-(pyrimidin-2-yl)phenyl)((2S,3R)-5,5-difluoro-3-methyl-2-(((5-(trifluoromethyl)pyrimidin-2-yl)amino)methyl)piperidin-1-yl)methanone], for which the IC50 on OX2 is more than 5000 nM; on OX1 it was 7 nM.

Turning to `C[C@@H]1CC(F)(F)CN(C(=O)c2nn(C)cc2-c2cccnc2)[C@@H]1CNc1cnc(C(F)(F)F)cn1` [Compound 155], the IC50 on OX2 is more than 5000 nM; at OX1, 38 nM.

Take `Cc1ccc(-c2cn(C)nc2C(=O)N2CC(F)(F)C[C@@H](C)[C@H]2CNc2ncc(C(F)(F)F)cn2)cn1` [Compound 89]: the results for the IC50 on OX2 and on OX1 were more than 5000 nM and 23 nM, respectively.

In the case of `Cc1ccnc(-c2cn(C)nc2C(=O)N2CC(F)(F)C[C@@H](C)[C@H]2CNc2cnc(C(F)(F)F)cn2)c1` [Compound 134], the values for the IC50 on OX2 and at OX1 were more than 5000 nM and 4 nM, respectively.

Turning to `Cc1cccc(-c2sc(C)nc2C(=O)N2CC(F)(F)C[C@@H](C)[C@H]2CNc2ncc(C(F)(F)F)cn2)n1` [Compound 77], the IC50 at OX2 is more than 5000 nM; at OX1, 4 nM.

For `C[C@@H]1CC(F)(F)CN(C(=O)c2nn(C)nc2-c2ccccc2)[C@@H]1CNc1ncc(C(F)(F)F)cn1` [Compound 82], the values for the IC50 on OX2 and on OX1 were more than 5000 nM and 45 nM, respectively.

As to `C[C@@H]1CC(F)(F)CN(C(=O)c2cc(F)ccc2-n2nccn2)[C@@H]1CNc1ncc(C(F)(F)F)cn1` [Compound 1, ((2S,3R)-5,5-difluoro-3-methyl-2-(((5-(trifluoromethyl)pyrimidin-2-yl)amino)methyl)piperidin-1-yl)(5-fluoro-2-(2H-1,2,3-triazol-2-yl)phenyl)methanone], the 50% inhibitory concentration (IC50) was more than 5000 nM on OX2 and 192 nM at OX1.

For the molecule `Cc1ccc(-c2cn(C)nc2C(=O)N2CC(F)(F)C[C@@H](C)[C@H]2CNc2ncc(C(F)(F)F)cn2)cc1` [Compound 32], the IC50 on OX2 was more than 5000 nM; at OX1, 12 nM and 6 nM.

In the case of `Cc1ccc(-c2ncccn2)c(C(=O)N2CC(F)(F)C[C@@H](C)[C@H]2COc2ccc(C(F)(F)F)cn2)n1` [Compound 215, ((2S,3R)-5,5-difluoro-3-methyl-2-(((5-(trifluoromethyl)pyridin-2-yl)oxy)methyl)piperidin-1-yl)(6-methyl-3-(pyrimidin-2-yl)pyridin-2-yl)methanone], the IC50 at OX2 is more than 5000 nM; at OX1, 5 nM.

On to `C[C@@H]1CC(F)(F)CN(C(=O)c2cc(Cl)ccc2-n2nccn2)[C@@H]1CNc1cnc(C(F)(F)F)cn1` [Compound 154], for which the IC50 was more than 5000 nM at OX2 and 12 nM at OX1.

`Cc1ccc(-c2cn(C)nc2C(=O)N2CC(F)(F)C[C@@H](C)[C@H]2CNc2ncc(C(F)(F)F)cn2)nc1` [Compound 44]: the values for the IC50 at OX2 and at OX1 were more than 5000 nM and 10 nM, respectively.
